Assay results published in US11591306B2, “Vitamin E-based amphipathic compound, and use thereof” (Industry-University Cooperation Foundation Hanyang …, priority 2017, dated 2023).

Experiments:
UapA [1] = target: T1, UapA (Emericella nidulans, UniProt Q07307, G411V); test: UapA extraction and thermal stability by fluorescence size exclusion chromatography (FSEC); set-up: made in house
Experimental: The membrane containing UapA was resuspended in a pH 8.0 PBS buffer containing 10 mM imidazole, 150 mM NaCl and 10% glycerol, and a protein concentration was measured. The membrane was adjusted to a concentration of 1 mg/ml, and a 1 ml aliquot was incubated for 60 minutes with each of 1.0 mL of DDM, LMNG, VEG-3 and VEG-5, on ice under stirring. A 100 uL aliquot was obtained from each tube and subjected to ultracentrifugation for 10 minutes at 150,000 g, and then fluorescent SEC (FSEC) was performed on each sample. The remaining soluble fractions were incubated for 10 minutes at 45° C. The thermally-treated samples were applied to FSEC to monitor the integrity of a transporter. FSEC was performed using a Superose6 column (GE Healthcare) equilibrated with a buffer containing an appropriate preparation (DDM, LMNG, VEG-3 or VEG-5).

β2AR-Gs complex [2] = target: T2, β2AR-Gs complex (Homo sapiens, UniProt P07550); test: Negative stain EM analysis of β2AR-Gs complex; settings: complex purified by VEG-3
T2 construct: made in house
Experimental: A β2AR-Gs protein complex was prepared for electron microscopy using a conventional negative staining protocol, and imaged at room temperature using a Tecnai T12 electron microscope operated at 120 kV according to a low-dose procedure. Images recorded at a magnification of 71,138× and a defocus value of approximately −1.1 urn on a Gatan US4000 CCD camera. All images were binned (2×2 pixels) to obtain a pixel size of 4.16 Å at a specimen level. Particles were manually […] using e2boxer (part of the EMAN2 software suite). 2D reference-free alignment and classification of particle projections were performed using ISAC. 23,035 projections of β2AR-Gs were subjected to ISAC producing 19 classes consistent in two-way matching and 5401 particle projections.

UapA [3] = target: T1, UapA; test: UapA thermal stability, CPM assay; set-up: made in house; host or cells: Saccharomyces cerevisiae FGY217 membranes; settings: CMC+0.2 wt %, 40° C. for 120 minutes
Experimental: UapAG411VΔ1-11 (hereinafter, referred to as “UapA”) was expressed in a Saccharomyces cerevisiae FGY217 strain by GFP fusion, and isolated into a sample buffer (20 mM Tris (pH 7.5), 150 mM NaCl, 0.03% DDM, 1 mM xanthine), which was performed according to the method disclosed in the paper written by J. Leung et al. (Mol. Menthr. Biol. 2013, 30, 32-42). The protein was concentrated to be approximately 10 mg/ml using a 100 kDa molecular weight cutoff filter (Millipore). The protein was diluted 1:150 with a buffer containing DDM, VEG (VEG-1, VEG-2, VEG-3, VEG-4 or VEG-5) or LMNG at CMC+0.2 wt % in Greiner 96. CPM dye (Invitrogen) stored in DMSO (Sigma) was diluted with a dye buffer (20 mM Tris (pH 7.5), 150 mM NaCl, 0.03% DDM, 5 mM EDTA), and 3 μL of the diluted dye was added to an individual protein sample. The reaction mixture was treated at a constant temperature of 40° C. for 120 minutes. A fluorescence emission intensity was monitored using a microplate spectrofluorometer set to excitation and emission wavelengths of 387 and 463 nm, respectively. The maximum fluorescence value was used to calculate the percentage of a protein folded during incubation. The relative amount of the folded protein was plotted over time using GraphPad Prism.

β2AR-Gs complex [4] = target: T2, β2AR-Gs complex; test: β2AR-Gs complex stability by analytical gel filtration (SEC); settings: complex purified in VEG-3, 3 and 15-day incubation, compound-free running buffer
Experimental: 100 μM β2AR solubilized in 0.1% DDM mixed with 120 μM Gs heterotrimer for 30 minutes at room temperature. 0.5-unit apyrase (NEB) and 2 mM MgCl2 were added to facilitate complex formation, followed by further incubation for one hour. Subsequently, 1.0% VEG-3 was added such that the final concentration reached 0.2%, and the sample was further incubated for 30 minutes to change DDM to VEG-3. The protein solution was loaded into a M1 Flag column, washed with a series of buffers with different molar ratios of 0.1% DDM buffer to 0.5% VEG-3 buffer to completely change DDM to VEG-3, and the receptor-Gs complex was finally eluted with a 0.05% VEG-3 buffer. Preparative gel filtration was performed to purify the β2AR-Gs complex with a running buffer (20 mM HEPES pH 7.5, 100 mM NaCl, 0.005% DTM-A6, 1 mM BI, […]). To measure the stability of the β2AR-Gs complex in VEG-3, analytical gel filtrations were performed using the running buffer as above, but after 3 and 15-day incubation, performed without VEG-3 (compound-free condition).

Cc1c(C)c2c(c(C)c1OCC(=O)NC(CO[C@@H]1OC(CO)[C@@H](O[C@H]3OC(CO)[C@@H](O)[C@H](O)C3O)[C@H](O)C1O)CO[C@@H]1OC(CO)[C@@H](O[C@H]3OC(CO)[C@@H](O)[C@H](O)C3O)[C@H](O)C1O)CCC(C)(CCCC(C)CCCC(C)CCCC(C)C)O2 (some centres unmarked) [VEG-3]
UapA integrity after thermal treatment (FSEC) (UapA [1]; 45° C. for 10 minutes): maintained protein integrity
Ability to extract and solubilize UapA (FSEC) (UapA [1]; before thermal treatment, 60 minutes on ice): LMNG and DDM were superior to VEG-3 and VEG-5
Homogeneity of β2AR-Gs complex particles (negative stain EM) (β2AR-Gs complex [2]): highly homogeneous
Ability to maintain UapA in a structurally stable state (CPM assay) (UapA [3]): excellent ability to maintain UapA in a structurally stable state
Integrity of the purified β2AR-Gs complex (SEC) (β2AR-Gs complex [4]): continuously maintains its integrity as a complex for 15 days
